Assay results reported in ChEMBL document CHEMBL1201862, “PubChem BioAssay data set” (2004).
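Cultured in 96-well plates, cells were exposed to test compound for 48 hours across five concentrations. GI50: concentration for 50% inhibition of growth.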 The source made the active and inactive calls. No stated cut-off is given here; in the data, active = GI50 up to about 1.1 µM and inactive = higher.

Key:
Assay in all cases: NCI-60 cell line screen, 48 h
[1] = tested on: IGROV-1
[2] = tested on: TK-10
[3] = tested on: K562
[4] = tested on: NCI-H23
[5] = tested on: COLO 205
[6] = tested on: RPMI-8226
[7] = tested on: HL-60
[8] = tested on: NCI-H522
[9] = tested on: HOP-62
[10] = tested on: PC-3
[11] = tested on: CAKI-1
[12] = tested on: HCT-116
[13] = tested on: OVCAR-5
[14] = tested on: DU-145
[15] = tested on: U-251
[16] = tested on: SNB-75
[17] = tested on: MDA-MB-435
[18] = tested on: LOX IMVI
[19] = tested on: Hs-578T
[20] = tested on: RXF 393
[21] = tested on: 786-0
[22] = tested on: NCI-H460
[23] = tested on: ACHN
[24] = tested on: SN12C
[25] = tested on: CCRF-CEM
[26] = tested on: MDA-MB-231
[27] = tested on: UACC-257
[28] = tested on: OVCAR-4
[29] = tested on: UACC-62
[30] = tested on: HT-29
[31] = tested on: SF-295
[32] = tested on: SK-MEL-28
[33] = tested on: SK-OV-3
[34] = tested on: UO-31
[35] = tested on: SW-620
[36] = tested on: OVCAR-3
[37] = tested on: EKVX
[38] = tested on: Malme-3M
[39] = tested on: SR
[40] = tested on: A498
[41] = tested on: T47D
[42] = tested on: SK-MEL-2
[43] = tested on: NCI/ADR-RES
[44] = tested on: SNB-19
[45] = tested on: MDA-N
[46] = tested on: NCI-H226
[47] = tested on: MCF7
[48] = tested on: HCT-15
[49] = tested on: SF-268
[50] = tested on: HCC 2998
[51] = tested on: OVCAR-8
[52] = tested on: MOLT-4
[53] = tested on: KM12
[54] = tested on: HOP-92
[55] = tested on: SK-MEL-5
[56] = tested on: SF-539
[57] = tested on: M14
[58] = tested on: A549

For O=C1CCc2ccccc2O1 [DIHYDROCOUMARIN], the GI50 [1] was > 100 µM (inactive), the GI50 [2] was > 100 µM (inactive) and the GI50 [3] was > 100 µM (inactive). The GI50 [4] was > 100 µM (inactive), the GI50 [5] was > 100 µM (inactive) and the GI50 [6] was > 100 µM (inactive). For the same compound, the GI50 [7] was > 100 µM (inactive), the GI50 [8] was > 100 µM (inactive) and the GI50 [9] was > 100 µM (inactive). For the same compound, the GI50 [10] was > 100 µM (inactive), the GI50 [11] was > 100 µM (inactive) and the GI50 [12] was > 100 µM (inactive). The GI50 [13] was > 100 µM (inactive), the GI50 [14] was > 100 µM (inactive) and the GI50 [15] was > 100 µM (inactive). For the same compound, the GI50 [16] was > 100 µM (inactive), the GI50 [17] was > 100 µM (inactive) and the GI50 [18] was > 100 µM (inactive). The GI50 [19] was > 100 µM (inactive), the GI50 [20] was > 100 µM (inactive) and the GI50 [21] was > 100 µM (inactive). The GI50 [22] was > 100 µM (inactive), the GI50 [23] was > 100 µM (inactive) and the GI50 [24] was > 100 µM (inactive). For the same compound, the GI50 [25] was > 100 µM (inactive), the GI50 [26] was > 100 µM (inactive) and the GI50 [27] was > 100 µM (inactive). The GI50 [28] was > 100 µM (inactive), the GI50 [29] was > 100 µM (inactive) and the GI50 [30] was > 100 µM (inactive). The GI50 [31] was > 100 µM (inactive), the GI50 [32] was > 100 µM (inactive) and the GI50 [33] was > 100 µM (inactive). The GI50 [34] was > 100 µM (inactive), the GI50 [35] was > 100 µM (inactive) and the GI50 [36] was > 100 µM (inactive). The GI50 [37] was > 100 µM (inactive), the GI50 [38] was > 100 µM (inactive) and the GI50 [39] was > 100 µM (inactive). For the same compound, the GI50 [40] was > 100 µM (inactive), the GI50 [41] was > 100 µM (inactive) and the GI50 [42] was > 100 µM (inactive). The GI50 [43] was > 100 µM (inactive), the GI50 [44] was > 100 µM (inactive) and the GI50 [45] was 53.1 µM (inactive). The GI50 [46] was > 100 µM (inactive), the GI50 [47] was > 100 µM (inactive) and the GI50 [48] was > 100 µM. The GI50 [49] was > 100 µM (inactive), the GI50 [50] was > 100 µM (inactive) and the GI50 [51] was > 100 µM (inactive). The GI50 [52] was > 100 µM (inactive), the GI50 [53] was > 100 µM (inactive) and the GI50 [54] was > 100 µM (inactive).

For O=C1CSC(c2ccccc2O)N1c1ccc2c(c1)Oc1c(Cl)c3c(c(Cl)c1=N2)Oc1cc(N2C(=O)CSC2c2ccccc2O)ccc1N=3 (centres undefined), the GI50 [1] was 36.1 µM (inactive), the GI50 [2] was 62.5 µM (inactive) and the GI50 [3] was 13.2 µM (inactive). For the same compound, the GI50 [4] was 58.3 µM (inactive), the GI50 [6] was 23.7 µM (inactive) and the GI50 [7] was 0.664 µM (active). The GI50 [8] was 20.6 µM (inactive), the GI50 [9] was 28.6 µM (inactive) and the GI50 [10] was 38.4 µM (inactive). The GI50 [11] was > 100 µM (inactive), the GI50 [12] was 30.6 µM (inactive) and the GI50 [13] was > 100 µM (inactive). The GI50 [55] was > 100 µM (inactive), the GI50 [14] was 42.4 µM (inactive) and the GI50 [15] was 24.9 µM (inactive). The GI50 [17] was 29.1 µM (inactive), the GI50 [18] was 42.1 µM (inactive) and the GI50 [19] was 30.3 µM (inactive). For the same compound, the GI50 [20] was 17.1 µM (inactive), the GI50 [21] was 40.1 µM (inactive) and the GI50 [22] was 43 µM (inactive). The GI50 [56] was 37.9 µM (inactive), the GI50 [23] was 24.5 µM (inactive) and the GI50 [25] was 18.1 µM (inactive). The GI50 [26] was 28.9 µM (inactive), the GI50 [27] was 81.1 µM (inactive) and the GI50 [28] was 64.7 µM (inactive). The GI50 [30] was 54.7 µM (inactive), the GI50 [31] was 42 µM (inactive) and the GI50 [32] was 81.5 µM (inactive). The GI50 [33] was 25.8 µM (inactive), the GI50 [34] was > 100 µM (inactive) and the GI50 [35] was 27.4 µM (inactive). For the same compound, the GI50 [36] was 33.3 µM (inactive), the GI50 [37] was > 100 µM (inactive) and the GI50 [39] was 0.873 µM (active). The GI50 [40] was > 100 µM (inactive), the GI50 [41] was 37.4 µM (inactive) and the GI50 [42] was 47.6 µM (inactive). For the same compound, the GI50 [43] was > 100 µM (inactive), the GI50 [45] was 38.4 µM (inactive) and the GI50 [46] was 73.6 µM (inactive). The GI50 [47] was 34 µM (inactive), the GI50 [48] was > 100 µM and the GI50 [49] was 32.7 µM (inactive). The GI50 [57] was 48.6 µM (inactive), the GI50 [50] was 53.3 µM (inactive) and the GI50 [51] was 29.4 µM (inactive). The GI50 [52] was 2.55 µM (inactive), the GI50 [53] was 34.3 µM (inactive) and the GI50 [54] was 17.1 µM (inactive).

In the case of CC1CC(C)C(O)C(C2CC(CC(=O)NC3CCCCC3)CC(=O)O2)C1 (centres undefined), the GI50 [1] is reported as > 100 µM (inactive), the GI50 [2] is reported as > 100 µM (inactive) and the GI50 [3] is reported as > 100 µM (inactive). For the same compound, the GI50 [4] was > 100 µM (inactive), the GI50 [5] was > 100 µM (inactive) and the GI50 [6] was > 100 µM (inactive). The GI50 [7] was > 100 µM (inactive), the GI50 [8] was > 100 µM (inactive) and the GI50 [9] was > 100 µM (inactive). For the same compound, the GI50 [10] was > 100 µM (inactive), the GI50 [11] was > 100 µM (inactive) and the GI50 [12] was > 100 µM (inactive). The GI50 [13] was > 100 µM (inactive), the GI50 [55] was > 100 µM (inactive) and the GI50 [14] was > 100 µM (inactive). For the same compound, the GI50 [15] was > 100 µM (inactive), the GI50 [16] was > 100 µM (inactive) and the GI50 [17] was > 100 µM (inactive). For the same compound, the GI50 [18] was > 100 µM (inactive), the GI50 [19] was > 100 µM (inactive) and the GI50 [20] was > 100 µM (inactive). The GI50 [21] was > 100 µM (inactive), the GI50 [22] was > 100 µM (inactive) and the GI50 [56] was > 100 µM (inactive). The GI50 [23] was > 100 µM (inactive), the GI50 [24] was 87.9 µM (inactive) and the GI50 [25] was > 100 µM (inactive). The GI50 [26] was > 100 µM (inactive), the GI50 [27] was > 100 µM (inactive) and the GI50 [28] was > 100 µM (inactive). The GI50 [30] was > 100 µM (inactive), the GI50 [31] was > 100 µM (inactive) and the GI50 [32] was > 100 µM (inactive). The GI50 [58] was > 100 µM (inactive), the GI50 [35] was > 100 µM (inactive) and the GI50 [36] was > 100 µM (inactive). For the same compound, the GI50 [37] was > 100 µM (inactive), the GI50 [38] was > 100 µM (inactive) and the GI50 [39] was > 100 µM (inactive). For the same compound, the GI50 [40] was > 100 µM (inactive), the GI50 [41] was > 100 µM (inactive) and the GI50 [43] was > 100 µM (inactive). The GI50 [44] was > 100 µM (inactive), the GI50 [45] was > 100 µM (inactive) and the GI50 [46] was > 100 µM (inactive). For the same compound, the GI50 [47] was > 100 µM (inactive), the GI50 [48] was > 100 µM and the GI50 [49] was > 100 µM (inactive). For the same compound, the GI50 [57] was > 100 µM (inactive), the GI50 [50] was > 100 µM (inactive) and the GI50 [51] was > 100 µM (inactive). The GI50 [52] was > 100 µM (inactive), the GI50 [53] was > 100 µM (inactive) and the GI50 [54] was > 100 µM (inactive).
